What is called IC50 is the concentration that inhibits the measured activity by half. The term CC50 denotes the concentration that lowers cell viability or growth by half. Higher therefore signals lower toxicity to the cells.

This passage reports IC50, CC50 and Activity results from ChEMBL document CHEMBL1156464, “Unique antiviral mechanism discovered in anti-hepatitis B virus research with a natural product analogue” (Proc Natl Acad Sci U S A, 2007).

Data set [1] concerns Hepatitis C virus. The data set is described as follows: Antiviral activity against hepatitis C virus. The format is functional, organism-based, Hepacivirus hominis.
The subject of data set [2] is Human alphaherpesvirus 1. The experiment in a line: Antiviral activity against HSV1. The format is functional, organism-based.
Data set [3] concerns Human gammaherpesvirus 4. The data set is described as follows: Antiviral activity against Epstein-Barr virus. Format: functional, organism-based.
In data set [4] the test system is Hepatitis B virus. The data set is described as follows: Inhibition of HBV promoter in human HepG2(2.2.15) cells by luciferase reporter gene assay. The format is functional, organism-based. (A reporter such as luciferase makes a cellular process visible.)
For data set [5], the system named is Hepatitis B virus. The data set is described as follows: Inhibition of HBV promoter in human HepG2 cells by luciferase reporter gene assay. The format is functional, organism-based.
Data set [6] relates to Human immunodeficiency virus. The data set is described as follows: Antiviral activity against HIV. Format: functional, organism-based. Conditions: Human immunodeficiency virus 1.
Data set [7] has as its system Hepatitis B virus. The data set is described as follows: Antiviral activity against HBV assessed as inhibition of viral replication. The format is functional, organism-based.
Data set [8] relates to human papillomavirus 11. The experiment in a line: Antiviral activity against human papilloma virus 11. Format: functional, organism-based.
Data set [9] can be described thus: Cytotoxicity against HBV transfected human ayw wild type HepG2(2.2.15) cells by MTT assay. Conditions: HBV-transfected ayw wild type HepG2(2.2.15) cells. The format is cell-based. (Tetrazolium assays rely on reduction of a dye to a coloured formazan, in cell work by metabolically active cells.)
In data set [10] the test system is Hepatitis B virus. The experiment in a line: Antiviral activity against HBV in human HepG2(2.2.15) cells assessed as inhibition of viral pre-genomic RNA replication. Format: functional, organism-based.
Data set [11] in a line: Cytotoxicity against HBV transfected human adriamycin-resistant HepD2 cells with RTM20V and RTV180M mutation by MTT assay. The format is cell-based.
The subject of data set [12] is Hepatitis B virus. The data set is described as follows: Antiviral activity against HBV in human HepW10 cells assessed as inhibition of viral pre genomic RNA replication. Format: functional, organism-based.
For data set [13], the system named is Hepatitis B virus. The experiment in a line: Antiviral activity against HBV in human HepG2(2.2.15) cells assessed as inhibition of viral 2.4/2.1RNA replication. Format: functional, organism-based.
The subject of data set [14] is Hepatitis B virus. The data set is described as follows: Antiviral activity against HBV in human HepW10 cells assessed as inhibition of viral 2.4/2.1RNA replication. Format: functional, organism-based.
For data set [15], the system named is Hepatitis B virus. The data set is described as follows: Antiviral activity against HBV in human HepD2 cells assessed as inhibition of viral pre genomic RNA replication. Format: functional, organism-based.
Data set [16] deals with Hepatitis B virus. The data set is described as follows: Antiviral activity against HBV in ayw wild type HepG2(2.2.15) cells assessed as inhibition of viral DNA replication. The format is functional, organism-based.
The nature of data set [17]: Cytotoxicity against HBV transfected human HepG2 cells by MTT assay. Format: cell-based.
Data set [18] in a line: Cytotoxicity against HBV transfected human adriamycin-resistant wild type HepW10 cells by MTT assay. Format: cell-based.
In data set [19] the test system is Hepatitis B virus. The data set is described as follows: Antiviral activity against HBV in human HepD2 cells assessed as inhibition of viral 2.4/2.1RNA replication. The format is functional, organism-based.
The subject of data set [20] is Hepatitis B virus. The experiment in a line: Antiviral activity against HBV in mouse HBV-Met cells assessed as inhibition of viral 2.4/2.1RNA replication. The format is functional, organism-based.
Data set [21] concerns Hepatitis B virus. The data set is described as follows: Antiviral activity against HBV in adriamycin-resistant wild type HepW10 cells assessed as inhibition of viral DNA replication. The format is functional, organism-based.
In data set [22] the test system is Hepatitis B virus. The data set is described as follows: Effect on virus RNA stability on doxycyclin-induced HBV pre genomic RNA production in Met-On-TRE HBV cells treated with 3 uM drug after doxycycline removal. The format is functional, organism-based.
For data set [23], the system named is Hepatitis B virus. The data set is described as follows: Antiviral activity against HBV in mouse ayw wild type HBV-Met cells assessed as inhibition of viral DNA replication. The format is functional, organism-based.
Data set [24] has as its system Hepatitis B virus. The data set is described as follows: Antiviral activity against HBV in HBV-Met cells assessed as inhibition of viral pre genomic RNA replication. Format: functional, organism-based.
Data set [25] deals with Hepatitis B virus. The data set is described as follows: Antiviral activity against HBV in adriamycin-resistant HepD2 cells with RTM20V and RTV180M mutation assessed as inhibition of viral DNA replication. Format: functional, organism-based.
Data set [26] in a line: Down regulation of HNH4-alpha in human HepG2(2.2.15) cells expressing HBV at 0.3 uM by Western blotting. Format: functional, cell-based. For orientation: A western blot detects proteins with antibodies after separation by electrophoresis.
Data set [27] has as its system Cytomegalovirus. The data set is described as follows: Inhibition of CMV promoter in human HepG2(2.2.15) cells by luciferase reporter gene assay after 16 to 24 hrs. The format is functional, organism-based. Conditions: TDE = time-dependent effect.
Data set [28] can be described thus: Down regulation of HNH3-beta in human HepG2(2.2.15) cells expressing HBV at 0.3 uM by Western blotting. The format is functional, cell-based.
In data set [29] the test system is HepG2. The experiment in a line: Decrease in binding of HBV promoter preC/C-EnhII to HNF4-2 in human HepG2 cells. Format: cell-based.
The subject of data set [30] is HepG2. The experiment in a line: Decrease in binding of HBV promoter preC/C-EnhII to FTF2 in human HepG2 cells. Format: cell-based.
The test system of data set [31] is HepG2 2.2.15. The experiment in a line: Decrease in binding of HBV promoter preC/C-EnhII to human HNF4-1 in HepG2(2.2.15) cells. The format is cell-based.
Data set [32] deals with HepG2 2.2.15. The experiment in a line: Decrease in binding of HBV promoter preC/C-EnhII to human FTF in HepG2(2.2.15) cells. The format is cell-based.
The test system of data set [33] is HepG2 2.2.15. The experiment in a line: Decrease in binding of HBV promoter preC/C-EnhII to human HNF4-2 in HepG2(2.2.15) cells. The format is cell-based.
Data set [34] concerns Hepatitis B virus. The experiment in a line: Decrease in HBV DNA level in human HepG2 cells at 2 uM after 48 hrs by time course study. The format is functional, organism-based.
For data set [35], the system named is HepG2. The data set is described as follows: Down regulation of HNH3-beta in human HepG2 cells expressing HBV at 0.3 uM by Western blotting. The format is functional, cell-based.
For data set [36], the system named is HepG2 2.2.15. The experiment in a line: Decrease in binding of HBV promoter preC/C-EnhII to human HNF3 in HepG2(2.2.15) cells. The format is cell-based.
In data set [37] the test system is Hepatitis B virus. The data set is described as follows: Effect on virus RNA stability on doxycyclin-induced HBV pre genomic RNA production in Met-On-TRE HBV cells treated with 0.3 uM drug after doxycycline removal. Format: functional, organism-based.
The test system of data set [38] is HepG2. The experiment in a line: Decrease in binding of HBV promoter preC/C-EnhII to HNF4-1 in human HepG2 cells. The format is cell-based.
Data set [39] can be described thus: Down regulation of HNH3-alpha mRNA in human HepG2(2.2.15) cells expressing HBV at 0.3 uM by Northern blotting. Format: functional, cell-based.
Data set [40] relates to HepG2. The data set is described as follows: Down regulation of HNH4-alpha in human HepG2 cells expressing HBV at 0.3 uM by Western blotting. The format is functional, cell-based.
Data set [41] deals with Hepatitis B virus. The experiment in a line: Effect on HBV viral core protein degradation on cyclohexamide terminated cellular protein synthesis in human HepG2(2.2.15) cells at 0.3 uM. Format: functional, organism-based.
Data set [42] deals with Hepatitis B virus. The data set is described as follows: Decrease in HBV RNA in human HepG2 cells at 2 uM after 18 to 24 hrs by time course study. The format is functional, organism-based.
Data set [43] deals with HepG2. The data set is described as follows: Decrease in binding of HBV promoter preC/C-EnhII to HNF3 in human HepG2 cells. Format: cell-based.
Data set [44] relates to Hepatitis B virus. The data set is described as follows: Decrease in HBV protein level in human HepG2 cells at 2 uM after 18 to 24 hrs by time course study. Format: functional, organism-based.

Active and inactive are the calls of the source. No cut-off for these calls is given here. Bounds are passed on as bounds.

Turning to `O=C1NCc2c1cc1ccc3c(c1c2-c1ccc2c(c1)OCO2)OCO3`, the IC50 was 1000 nM in data set [1]; 290 nM in [2]; 11000 nM in data set [3]; 80 nM in data set [4]; > 1000 nM in data set [5]; 4000 nM in data set [6]. Besides, the IC50 in [7] was 80 nM; in data set [8], 200 nM.

As to `Nc1ccn([C@@H]2CS[C@H](CO)O2)c(=O)n1` [LAMIVUDINE], the CC50 in [9] is > 100000 nM; in data set [11] it was > 100000 nM; in data set [17], 100000 nM; in data set [18], > 100000 nM. The outcome in data set [10], in [12], in [13], in data set [14], in data set [15] and in [19] was inactive. Moreover, the outcome in data set [20], in data set [22] and in [24] was inactive. Besides, the IC50 in data set [4] is 80 nM; in [16] it was 50 nM; in data set [5] it was > 1000 nM; in [21], 100 nM; in data set [23] it was 200 nM; in data set [25] it was > 3000 nM.

Turning to `O=c1[nH][nH]c(=O)c2c(-c3ccc4c(c3)OCO4)c3c4c(ccc3cc12)OCO4`, the concentration for half-maximal inhibition (IC50) in data set [1] is 10000 nM; in data set [10] it was 300 nM; in [12], 400 nM; in [13], 900 nM; in data set [14], > 3000 nM; in data set [15] it was 90 nM. Also, the IC50 in data set [2] was 1200 nM; in [3], > 25000 nM; in data set [4] it was 80 nM; in data set [16], 80 nM; in data set [19], 1500 nM; in data set [5] it was > 1000 nM. Moreover, the IC50 in data set [20] is 1000 nM; in data set [21], 200 nM; in data set [6], 15000 nM; in data set [23] it was 300 nM; in data set [24], 500 nM; in data set [7], 100 nM. The IC50 in [8] was found to be 5800 nM; in data set [25] it was 30 nM. For the same molecule, the result in [26], in data set [28], in data set [30], in data set [31], in [32] and in data set [33] was Active. Further, the result in data set [34], in data set [35], in data set [36], in data set [42] and in [44] was Active. The CC50 in [9] amounted to 9000 nM; in [11], 12000 nM; in [17], 29000 nM; in [18], 13000 nM. Further, the Activity result in data set [27] is “tde”. Besides, the result in data set [29], in [37], in data set [38], in [39], in [40] and in data set [41] was inactive. Also, in data set [43], the outcome was inactive.
